Data taken from paper PMC12116161, “An Elastase Inhibitor ShSPI from Centipede Attenuates Bleomycin-Induced Pulmonary Fibrosis” (Toxins, 2025).
Entries after “also recorded” stand apart in the source; their conditions may differ. Where a SMILES comes first, the peptide text is derived from it. Bridges are numbered along the chain shown (N, C = ends).

Assays:
[1] = tested on: ICR healthy mice; assay: Single administration toxicity study: blood biochemistry and electrolytes; assay type: in vivo; conditions: single airway spray, day 14 post-dose, serum, automated biochemistry analyzer, mean ± s
Protocol: (§1) Specific pathogen-free (SIPF) grade ICR healthy mice (with an equal number of males and females, procured from Hunan Slaughter King Laboratory Animal Co., Changsha, China) were randomly divided into four experimental groups and received ShSPI via airway spray at doses of 0 mg/kg (control), 40 mg/kg, 80 mg/kg, or 160 mg/kg in a single administration. Following treatment, the mice were monitored for a 14-day observation period. On the fourteenth day, blood plasma samples were collected for precise measurement and analysis of hematological and biochemical parameters. The specific process is as follows.
On day 14 post-dose, approximately 1.7–2.0 mL of whole blood was collected for hematological and biochemical analyses. Hematological parameters were assessed using an automated hematology analyzer, while biochemical parameters were evaluated with an automated biochemistry analyzer. Prior to blood collection, all mice were fasted for at least 12 h. For hematological analysis, 200 μL of whole blood was immediately transferred into EDTA-containing tubes. For biochemical analysis, 1.5 mL of whole blood was placed into serum separator tubes without anticoagulant and centrifuged to isolate serum.

[2] = Pharmacokinetic study of ShSPI (plasma, LC-MS/MS); assay type: in vivo, mice; design: CI/F: unit not given here
Protocol: Each plasma sample was analyzed by LC-MS/MS, and the raw data were processed by DAS pharmacokinetic v2.1.1 software to obtain pharmacokinetic parameters (Table 3) and blood concentration–time curves (Figure 5).
Grouping and Sampling: SIPF grade Sprague Dawley (SD) healthy rats (male, procured from Hunan Slaughter King Laboratory Animal Co.) were randomly divided into three groups, with three rats in each group. All groups received a single administration of the ShSPI and were fasted for 12 h prior to dosing. The groups included two inhalation groups (1 mg/kg and 2 mg/kg) and an intravenous tail vein injection group (1 mg/kg). Blood samples were collected from the subclavian vein at 5 min, 15 min, 30 min, 1 h, 2 h, 4 h, 8 h, and 24 h post-dosing. A 0.2 mL blood sample was transferred into pre-labeled EDTA-2K anticoagulant tubes and gently inverted to ensure thorough mixing of the anticoagulant with the blood. Samples were immediately placed on ice. Plasma was separated within 1 h by centrifugation at 6800 rpm for 5 min at 4 °C. The supernatant was collected and stored at −20 °C until analysis.
Sample Preparation Before Analysis: Sample preparation was conducted under yellow light in an ice-water bath. For each analysis, 30 μL of standard or experimental sample was mixed with 200 μL of working solution, while blank samples were prepared with an equivalent volume of methanol. The mixture was vortexed thoroughly and centrifuged at 5500 rpm for 10 min. A 150 μL aliquot of the supernatant was mixed with 150 μL of ultrapure water, and the final mixture was subjected to analysis.
Chromatographic and Mass Spectrometry Conditions: Chromatographic separation was performed using an AQ C18 column (2.1 × 50 mm, 5.0 μm). The injection volume was 10 μL. The mobile phase consisted of 0.1% formic acid in water (A) and methanol (B), with the following gradient program: 10% B at 0–0.01 min, 98% B at 0.01–1.8 min, 98% B at 1.8–2.5 min, and 10% B at 2.5–3.0 min. The flow rate was set at 0.6 mL/min. Mass spectrometry analysis was performed using an electrospray ionization (ESI) source in multiple reaction monitoring (MRM) mode.

[3] = tested on: ICR healthy mice; assay: Single administration toxicity study: overall toxicity and examination of major organs; assay type: in vivo; conditions: single airway spray
Protocol: as §1
At the end of the 14-day observation period, all mice underwent a comprehensive gross anatomical examination. Key organs, including the heart, liver, spleen, lungs, kidneys, brain, and gastrointestinal tract, were evaluated for changes in surface color, morphological structure, size, and tissue texture.

[4] = 40 mg/kg ShSPI, n = 6, * p < 0.05 vs blank control
[5] = 80 mg/kg ShSPI, n = 6, * p < 0.05 vs blank control
[6] = male, Sprague Dawley, inhaled or intranasal, 1 mg/kg ShSPI, single inhalation, plasma, LC-MS/MS, DAS software, mean ± s, n = 3, method SD rats
[7] = male, Sprague Dawley, inhaled or intranasal, 2 mg/kg ShSPI, single inhalation, plasma, LC-MS/MS, DAS software, mean ± s, n = 3, method SD rats

## CC[C@H](C)[C@@H]1NC(=O)[C@H](C)NC(=O)[C@@H]2CCCN2C(=O)[C@@H]2CSSC[C@H](NC(=O)[C@H](CO)NC(=O)[C@H](CC(N)=O)NC(=O)[C@H](CO)NC(=O)[C@H](Cc3ccc(O)cc3)NC(=O)[C@H](CCSC)NC(=O)[C@H](CCCNC(=N)N)NC(=O)CNC(=O)[C@H](Cc3ccccc3)NC(=O)[C@H](CCC(=O)O)NC(=O)[C@H](CC(=O)O)NC(=O)[C@H](Cc3ccccc3)NC(=O)[C@H](C(C)C)NC(=O)[C@@H]3CCCN3C(=O)[C@H](CCC(N)=O)NC(=O)[C@H](Cc3ccc(O)cc3)NC1=O)C(=O)N[C@@H](CCC(=O)O)C(=O)N[C@@H](CCSC)C(=O)N[C@@H](CCC(N)=O)C(=O)N[C@@H](CCCNC(=N)N)C(=O)N[C@@H](C)C(=O)N[C@@H](CCCNC(=N)N)C(=O)N[C@H](C(=O)N[C@@H](CC(C)C)C(=O)N[C@@H](CCCNC(=N)N)C(=O)NCC(=O)O)CSSC[C@H](N)C(=O)N1CCC[C@H]1C(=O)N[C@@H](CCC(N)=O)C(=O)N[C@@H](C(C)C)C(=O)N2 [ShSPI] (H-CPQVCPAIYQPVFDEFGRMYSNSCEMQRARCLRG-OH; disulfide 1-31, 5-24; N-terminus and C-terminus assumed)
[1]; 40 mg/kg ShSPI, n = 6
  ALBII: 29.13 ± 1.27 g/L
  ALP: 85.25 ± 18.91 U/L
  ALT: 44.95 ± 22.02 U/L
  AST: 97.20 ± 13.33 U/L
  CK: 236.4 ± 108.76 U/L
  CREA-S: 21.70 ± 4.99 µmol/L
  GLO2: 17.67 ± 0.80 g/L
  Glu-G: 9.93 ± 1.48 mmol/L
  T-Bil-VII: 1.73 ± 0.80 µmol/L
  TC: 2.09 ± 0.33 mmol/L
  TG: 1.35 ± 0.50 mmol/L
  TPII: 46.81 ± 1.48 g/L
  UREA: 17.07 ± 3.07 mmol/L
  calcium binding: 1.23 ± 0.011 mmol/L
  chloride ion: 106.80 ± 1.14 mmol/L
  potassium ion: 4.82 ± 0.27 mmol/L
  r-GT: 0.38 ± 0.20 U/L
  sodium ion: 152.39 ± 1.75 mmol/L
[1]; [4]
  calcium ionomer: 1.23 ± 0.01 * mmol/L
  total calcium: 2.48 ± 0.02 * mmol/L
[1]; 80 mg/kg ShSPI, n = 6
  ALBII: 28.05 ± 1.53 g/L
  ALP: 94.75 ± 22.33 U/L
  ALT: 38.58 ± 7.12 U/L
  AST: 92.95 ± 20.45 U/L
  CK: 175.4 ± 69.9 U/L
  CREA-S: 23.10 ± 2.24 µmol/L
  GLO2: 17.21 ± 0.82 g/L
  Glu-G: 9.71 ± 1.69 mmol/L
  T-Bil-VII: 1.47 ± 0.43 µmol/L
  TC: 2.21 ± 0.61 mmol/L
  TG: 1.21 ± 0.32 mmol/L
  TPII: 45.26 ± 1.62 g/L
  UREA: 14.79 ± 3.07 mmol/L
  calcium binding: 1.24 ± 0.05 mmol/L
  chloride ion: 106.5 ± 1.26 mmol/L
  potassium ion: 5.01 ± 0.46 mmol/L
  r-GT: 0.00 ± 1.01 U/L
  sodium ion: 150.7 ± 1.89 mmol/L
[1]; [5]
  calcium ionomer: 1.24 ± 0.05 * mmol/L
  total calcium: 2.49 ± 0.10 * mmol/L
[1]; 160 mg/kg ShSPI, n = 6
  ALBII: 30.1 ± 1.28 g/L
  ALP: 98.6 ± 27.17 U/L
  ALT: 39.80 ± 7.79 U/L
  AST: 80.6 ± 16.79 U/L
  CK: 156.4 ± 75.0 U/L
  CREA-S: 19.1 ± 3.98 µmol/L
  GLO2: 18.0 ± 1.06 g/L
  Glu-G: 9.24 ± 1.33 mmol/L
  TC: 2.26 ± 0.33 mmol/L
  TG: 1.23 ± 0.35 mmol/L
  TPII: 48.2 ± 1.79 g/L
  UREA: 13.6 ± 4.00 mmol/L
  calcium binding: 1.28 ± 0.03 mmol/L
  calcium ionomer: 1.28 ± 0.03 mmol/L
  chloride ion: 106.5 ± 1.44 mmol/L
  potassium ion: 4.68 ± 0.30 mmol/L
  r-GT: 0.31 ± 0.35 U/L
  sodium ion: 152.9 ± 1.60 mmol/L
[1]; 160 mg/kg ShSPI, n = 6, * p < 0.05 vs blank control
  total calcium: 2.5 ± 0.06 * mmol/L
[2]; 2 mg/kg ShSPI, single inhalation, plasma, LC-MS/MS, DAS software, mean ± s, n = 3, table says mice, method SD rats
  CI/F: 29.00 ± 11.90
[2]; inhalation, doses of 1 mg/kg and 2 mg/kg, 8 h post-administration, LC-MS/MS
  detectability in vivo (plasma) at 8 h post-administration: detected; also recorded: detectable
[2]; inhalation, doses of 1 mg/kg and 2 mg/kg, 24 h post-administration, LC-MS/MS
  detectability in vivo (plasma) at 24 h post-administration: no longer detectable
[2]; [6]
  AUC(0-t): 580 ± 294 ng·h/mL
  Cmax: 188 ± 64.4 ng/mL
  MRT: 2.86 ± 0.725 h
[2]; male, Sprague Dawley, inhaled or intranasal, 1 mg/kg ShSPI, single inhalation, plasma, LC-MS/MS, DAS software, n = 3, method SD rats
  Tmax: 1 h
[2]; [7]
  AUC(0-inf): 1260 ± 422 ng·h/mL
  AUC(0-t): 1170 ± 415 ng·h/mL
  Cmax: 347 ± 151 ng/mL
  MRT: 3.1 ± 0.898 h
  half-life: 2.14 ± 0.663 h
[2]; male, Sprague Dawley, inhaled or intranasal, 2 mg/kg ShSPI, single inhalation, plasma, LC-MS/MS, DAS software, n = 3, method SD rats
  Tmax: 1 h
[2]; overall assessment in words
  overall metabolism in mice: moderate
[3]; doses up to 160 mg/kg, end of 14-day observation
  histopathological examination of major organs: no pathological changes
[3]; escalating doses up to 160 mg/kg, 14-day observation
  toxicity after single administration: no detectable toxicity observed; also recorded: did not show significant toxic effects
